Among the data in patent US9587005B2 (priority 2010, dated 2017) are EC50 values, retold here.

For orientation: EC50 means the concentration at which the effect is half-maximal.

Like-named read-outs stand apart in the source and are kept apart here. *1 amine or outer side, *2 acyl side, *3 side chain or, on linkers, in order; H or OH if unused. Where a SMILES comes first, the peptide text is derived from it. Where no end group is shown, it is not given here. Side-chain parts run from the residue outwards. [ ]: non-standard residue; d: D form. The star is where a group is joined. Phe(4-NH2) = Nc1ccc(C[C@H](N)C(=O)O)cc1; γGlu = O=C(O)[C@H](CCC(=O)[*:2])N[*:1]; X6 = CCCCCCCCCCCCCCCCC(CC(=O)*)C(=O)O; Palmitoyl = CCCCCCCCCCCCCCCC(=O)*; Aib = CC(C)(N)C(=O)O

Type in all cases: cell-based
For assay [1], the target named is T1, GLP-1 receptor (Homo sapiens, UniProt P43220).
T1 construct: expressed in transfected cells; host or cells: HEK293
Briefly: cAMP induction, firefly luciferase reporter assay in HEK293 cells co-transfected with GLP-1 receptor. The text has this: (§1) This example describes an exemplary method of testing the biological activity of the peptides of the present disclosures, which method involves assaying cAMP synthesis.
(In general: In a reporter assay the amount or activity of a reporter protein is the signal.)

The target of assay [2] is T2, GIP receptor (Homo sapiens, UniProt P48546).
T2 sequence (P48546 22-466): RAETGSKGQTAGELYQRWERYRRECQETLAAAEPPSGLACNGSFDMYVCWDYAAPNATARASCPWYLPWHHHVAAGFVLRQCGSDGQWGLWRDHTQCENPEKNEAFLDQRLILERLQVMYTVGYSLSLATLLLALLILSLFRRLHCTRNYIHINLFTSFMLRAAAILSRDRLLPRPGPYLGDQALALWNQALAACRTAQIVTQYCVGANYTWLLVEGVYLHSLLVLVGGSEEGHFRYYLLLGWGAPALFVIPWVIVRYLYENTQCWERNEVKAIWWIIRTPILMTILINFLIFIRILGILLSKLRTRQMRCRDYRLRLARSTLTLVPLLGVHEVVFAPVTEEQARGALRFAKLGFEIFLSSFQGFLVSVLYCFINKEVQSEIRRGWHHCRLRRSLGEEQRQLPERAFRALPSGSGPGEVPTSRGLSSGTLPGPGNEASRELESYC
Briefly: cAMP induction, firefly luciferase reporter assay in HEK293 cells co-transfected with GIP receptor.

The target in assay [3] is T3, glucagon receptor (Homo sapiens, UniProt P47871).
T3 construct: expressed in transfected cells; host or cells: HEK293
The assay can be described thus: cAMP induction, firefly luciferase reporter assay in HEK293 cells co-transfected with glucagon receptor.
Text: as §1

[4] abbreviates: GLP-1 Receptor EC50, Table 10, Example 16.
[5] abbreviates: Table 10, Example 16, read-out: GIP-1 Receptor EC50.
The mark [6] stands for this setting: EC50 (nM) at glucagon receptor, Table 16, Example 24.
Where [7] appears, read: Glucagon Receptor EC50, Table 10, Example 16.

T3 sequence (P47871 26-477): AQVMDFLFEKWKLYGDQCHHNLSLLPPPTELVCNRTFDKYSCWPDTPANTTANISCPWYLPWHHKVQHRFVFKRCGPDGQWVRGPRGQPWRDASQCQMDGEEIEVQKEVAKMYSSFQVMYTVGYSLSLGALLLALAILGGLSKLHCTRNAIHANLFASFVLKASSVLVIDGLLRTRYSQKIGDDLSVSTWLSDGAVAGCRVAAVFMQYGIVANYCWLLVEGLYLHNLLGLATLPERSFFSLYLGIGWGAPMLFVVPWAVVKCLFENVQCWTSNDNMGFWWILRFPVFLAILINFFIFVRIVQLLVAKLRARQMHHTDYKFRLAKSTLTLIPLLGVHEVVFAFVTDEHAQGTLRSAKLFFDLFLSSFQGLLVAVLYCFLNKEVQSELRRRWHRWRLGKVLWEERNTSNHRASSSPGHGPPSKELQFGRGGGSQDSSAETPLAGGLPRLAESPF
T1 sequence (P43220 24-463): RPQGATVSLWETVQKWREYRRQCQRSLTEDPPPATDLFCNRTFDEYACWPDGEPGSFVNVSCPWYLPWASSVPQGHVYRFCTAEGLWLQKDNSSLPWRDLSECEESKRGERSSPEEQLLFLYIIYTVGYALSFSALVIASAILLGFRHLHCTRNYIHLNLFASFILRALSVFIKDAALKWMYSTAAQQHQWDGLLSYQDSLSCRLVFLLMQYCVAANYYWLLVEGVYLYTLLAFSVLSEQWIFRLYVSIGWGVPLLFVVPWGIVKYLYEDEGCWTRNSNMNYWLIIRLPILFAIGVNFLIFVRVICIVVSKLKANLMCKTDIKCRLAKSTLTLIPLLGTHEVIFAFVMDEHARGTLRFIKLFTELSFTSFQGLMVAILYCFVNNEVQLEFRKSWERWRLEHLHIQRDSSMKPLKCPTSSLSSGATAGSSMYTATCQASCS

For `CCCCCCCCCCCCCCCC(=O)N[C@@H](CCC(=O)NCCCC[C@H](NC(=O)[C@H](CC(=O)O)NC(=O)[C@H](CO)NC(=O)[C@@H](NC(=O)[C@H](Cc1ccccc1)NC(=O)[C@@H](NC(=O)CNC(=O)[C@H](CCC(N)=O)NC(=O)C(C)(C)NC(=O)[C@@H](N)Cc1c[nH]cn1)[C@@H](C)O)[C@@H](C)O)C(=O)N[C@@H](CO)C(=O)N[C@@H](CCCCN)C(=O)N[C@@H](Cc1ccc(O)cc1)C(=O)N[C@@H](CC(C)C)C(=O)N[C@@H](CC(=O)O)C(=O)N[C@@H](CCC(=O)O)C(=O)N[C@@H](CCCNC(=N)N)C(=O)N[C@@H](C)C(=O)N[C@@H](C)C(=O)N[C@@H](CCC(N)=O)C(=O)N[C@@H](CC(=O)O)C(=O)N[C@@H](Cc1ccccc1)C(=O)N[C@H](C(=O)N[C@@H](CCC(N)=O)C(=O)N[C@@H](Cc1c[nH]c2ccccc12)C(=O)N[C@@H](CC(C)C)C(=O)N[C@@H](CC(C)C)C(=O)N[C@@H](CC(=O)O)C(=O)NCC(=O)NCC(=O)N1CCC[C@H]1C(=O)N[C@@H](CO)C(=O)N[C@@H](CO)C(=O)NCC(=O)N[C@@H](C)C(=O)N1CCC[C@H]1C(=O)N1CCC[C@H]1C(=O)N1CCC[C@H]1C(=O)N[C@@H](CO)C(N)=O)C(C)C)C(=O)O` [SEQ ID NO: 28], the EC50 came out at 0.002 nM in assay [1] (EC50 (nM) at GLP-1 receptor, Table 15, Example 23); 0.007 nM in assay [1] (setting [4]); 0.003 nM in assay [1] (Table 12, Example 19, read-out: EC50 (cAMP, nmole) GLPR); 0.002 nM in assay [2] (EC50 (nM) at GIP receptor, Table 15, Example 23); 0.003 nM in assay [2] (GIP (0.01), Table 8, Example 14, activity at the GIP receptor); 0.003 nM in assay [2] (setting [5]). Besides, the EC50 in assay [2] (Table 12, Example 19, read-out: EC50 (cAMP, nmole) GIPR) stood at 0.007 nM; in assay [3] (EC50 (nM) at glucagon receptor, Table 15, Example 23), 0.002 nM; in assay [3] (setting [6]), 0.003 nM.

As for `CCCCCCCCCCCCCCCCC(CC(=O)Nc1ccc(C[C@H](NC(=O)[C@H](CC(=O)O)NC(=O)[C@H](CO)NC(=O)[C@@H](NC(=O)[C@H](Cc2ccccc2)NC(=O)[C@@H](NC(=O)CNC(=O)[C@H](CCC(=O)O)NC(=O)C(C)(C)NC(=O)[C@@H](N)Cc2ccc(O)cc2)[C@@H](C)O)[C@@H](C)O)C(=O)N[C@@H](CO)C(=O)N[C@H](C(=O)N[C@@H](Cc2ccc(O)cc2)C(=O)N[C@@H](CC(C)C)C(=O)N[C@@H](CC(=O)O)C(=O)N[C@@H](CCCCN)C(=O)N[C@@H](CCC(N)=O)C(=O)N[C@@H](C)C(=O)N[C@@H](C)C(=O)NC(C)(C)C(=O)N[C@@H](CCC(=O)O)C(=O)N[C@@H](Cc2ccccc2)C(=O)N[C@H](C(=O)N[C@@H](CC(N)=O)C(=O)N[C@@H](Cc2c[nH]c3ccccc23)C(=O)N[C@@H](CC(C)C)C(=O)N[C@@H](CC(C)C)C(=O)N[C@@H](C)C(=O)NCC(=O)NCC(=O)N2CCC[C@H]2C(=O)N[C@@H](CO)C(=O)N[C@@H](CO)C(=O)NCC(=O)N[C@@H](C)C(=O)N2CCC[C@H]2C(=O)N2CCC[C@H]2C(=O)N2CCC[C@H]2C(=O)N[C@@H](CO)C(N)=O)C(C)C)[C@@H](C)CC)cc1)C(=O)O` (stereo partly shown) [SEQ ID NO: 144] (H-Y[Aib]EGTFTSD[Phe(4-NH2)](X6)SIYLDKQAA[Aib]EFVNWLLAGGPSSGAPPPS-NH2; N-terminus assumed), the EC50 in assay [1] is 0.004 nM; in assay [2], 0.013 nM; in assay [3] it was over 0.5 nM.

As to `CCCCCCCCCCCCCCCC(=O)N[C@@H](CCC(=O)Nc1ccc(C[C@H](NC(=O)[C@@H](NC(=O)CNC(=O)[C@H](CCC(N)=O)NC(=O)C(C)(C)NC(=O)[C@@H](N)Cc2c[nH]cn2)[C@@H](C)O)C(=O)N[C@H](C(=O)N[C@@H](CO)C(=O)N[C@@H](CC(=O)O)C(=O)N[C@@H](Cc2ccc(O)cc2)C(=O)N[C@@H](CO)C(=O)N[C@@H](CCCCN)C(=O)N[C@@H](Cc2ccc(O)cc2)C(=O)N[C@@H](CC(C)C)C(=O)N[C@@H](CC(=O)O)C(=O)N[C@@H](CCC(=O)O)C(=O)N[C@@H](CCCNC(=N)N)C(=O)N[C@@H](C)C(=O)N[C@@H](C)C(=O)N[C@@H](CCC(N)=O)C(=O)N[C@@H](CC(=O)O)C(=O)N[C@@H](Cc2ccccc2)C(=O)N[C@H](C(=O)N[C@@H](CCC(N)=O)C(=O)N[C@@H](Cc2c[nH]c3ccccc23)C(=O)N[C@@H](CC(C)C)C(=O)N[C@@H](CC(C)C)C(=O)N[C@@H](CC(=O)O)C(=O)NCC(=O)NCC(=O)N2CCC[C@H]2C(=O)N[C@@H](CO)C(=O)N[C@@H](CO)C(=O)NCC(=O)N[C@@H](C)C(=O)N2CCC[C@H]2C(=O)N2CCC[C@H]2C(=O)N2CCC[C@H]2C(=O)N[C@@H](CO)C(N)=O)C(C)C)[C@@H](C)O)cc1)C(=O)O` [SEQ ID NO: 147] (H-H[Aib]QGT[Phe(4-NH2)]([γGlu-Palmitoyl])TSDYSKYLDERAAQDFVQWLLDGGPSSGAPPPS-NH2; N-terminus assumed), the EC50 came to 0.004 nM in assay [1] (setting [4]), 3.13 nM in assay [2] (setting [5]) and 0.246 nM in assay [3] (setting [7]).

`CCCCCCCCCCCCCCCCC(CC(=O)Nc1ccc(C[C@H](NC(=O)[C@H](CC(=O)O)NC(=O)[C@H](CO)NC(=O)[C@@H](NC(=O)[C@H](Cc2ccccc2)NC(=O)[C@@H](NC(=O)CNC(=O)[C@H](CCC(N)=O)NC(=O)C(C)(C)NC(=O)[C@@H](N)Cc2c[nH]cn2)[C@@H](C)O)[C@@H](C)O)C(=O)N[C@@H](CO)C(=O)N[C@@H](CCCCN)C(=O)N[C@@H](Cc2ccc(O)cc2)C(=O)N[C@@H](CC(C)C)C(=O)N[C@@H](CC(=O)O)C(=O)N[C@@H](CCC(=O)O)C(=O)N[C@@H](CCCNC(=N)N)C(=O)N[C@@H](C)C(=O)N[C@@H](C)C(=O)N[C@@H](CCC(N)=O)C(=O)N[C@@H](CC(=O)O)C(=O)N[C@@H](Cc2ccccc2)C(=O)N[C@H](C(=O)N[C@@H](CCC(N)=O)C(=O)N[C@@H](Cc2c[nH]c3ccccc23)C(=O)N[C@@H](CC(C)C)C(=O)N[C@@H](CC(C)C)C(=O)N[C@@H](CC(=O)O)C(=O)NCC(=O)NCC(=O)N2CCC[C@H]2C(=O)N[C@@H](CO)C(=O)N[C@@H](CO)C(=O)NCC(=O)N[C@@H](C)C(=O)N2CCC[C@H]2C(=O)N2CCC[C@H]2C(=O)N2CCC[C@H]2C(=O)N[C@@H](CO)C(N)=O)C(C)C)cc1)C(=O)O` (stereo partly shown) [SEQ ID NO: 150]: the half-maximal effective concentration (EC50) in assay [1] came out at 0.004 nM; in assay [2], 0.141 nM; in assay [3], 0.006 nM.

With `CCCCCCCCCCCCCCCC(=O)N[C@@H](CCC(=O)NCCCC[C@H](NC(=O)[C@H](CCCCN)NC(=O)[C@H](CO)NC(=O)[C@H](Cc1ccc(O)cc1)NC(=O)[C@H](CC(=O)O)NC(=O)[C@H](CO)NC(=O)[C@@H](NC(=O)[C@H](Cc1ccccc1)NC(=O)[C@@H](NC(=O)CNC(=O)[C@H](CCC(N)=O)NC(=O)C(C)(C)NC(=O)[C@@H](N)Cc1c[nH]cn1)[C@@H](C)O)[C@@H](C)O)C(=O)N[C@@H](CC(C)C)C(=O)N[C@@H](CC(=O)O)C(=O)N[C@@H](CCC(=O)O)C(=O)N[C@@H](CCCNC(=N)N)C(=O)N[C@@H](C)C(=O)N[C@@H](C)C(=O)N[C@@H](CCC(N)=O)C(=O)N[C@@H](CC(=O)O)C(=O)N[C@@H](Cc1ccccc1)C(=O)N[C@H](C(=O)N[C@@H](CCC(N)=O)C(=O)N[C@@H](Cc1c[nH]c2ccccc12)C(=O)N[C@@H](CC(C)C)C(=O)N[C@@H](CC(C)C)C(=O)N[C@@H](CC(=O)O)C(=O)NCC(=O)NCC(=O)N1CCC[C@H]1C(=O)N[C@@H](CO)C(=O)N[C@@H](CO)C(=O)NCC(=O)N[C@@H](C)C(=O)N1CCC[C@H]1C(=O)N1CCC[C@H]1C(=O)N1CCC[C@H]1C(=O)N[C@@H](CO)C(N)=O)C(C)C)C(=O)O` [SEQ ID NO: 151] (H-H[Aib]QGTFTSDYSKK([γGlu-Palmitoyl])LDERAAQDFVQWLLDGGPSSGAPPPS-NH2), the EC50 was 0.004 nM in assay [1] (setting [4]), 0.309 nM in assay [2] (setting [5]) and 0.008 nM in assay [3] (setting [7]).

Regarding `CCCCCCCCCCCCCCCC(=O)N[C@@H](CCC(=O)N[C@@H](CCC(=O)NCCCC[C@H](NC(=O)[C@H](CC(=O)O)NC(=O)[C@H](CO)NC(=O)[C@@H](NC(=O)[C@H](Cc1ccccc1)NC(=O)[C@@H](NC(=O)CNC(=O)[C@H](CCC(N)=O)NC(=O)C(C)(C)NC(=O)[C@@H](N)Cc1c[nH]cn1)[C@@H](C)O)[C@@H](C)O)C(=O)N[C@@H](CO)C(=O)N[C@@H](CCCCN)C(=O)N[C@@H](Cc1ccc(O)cc1)C(=O)N[C@@H](CC(C)C)C(=O)N[C@@H](CC(=O)O)C(=O)NC(C)(C)C(=O)N[C@@H](CCCNC(=N)N)C(=O)N[C@@H](C)C(=O)N[C@@H](C)C(=O)N[C@@H](CCC(N)=O)C(=O)N[C@@H](CC(=O)O)C(=O)N[C@@H](Cc1ccccc1)C(=O)N[C@H](C(=O)N[C@@H](CCC(N)=O)C(=O)N[C@@H](Cc1c[nH]c2ccccc12)C(=O)N[C@@H](CC(C)C)C(=O)N[C@@H](CCSC)C(=O)N[C@@H](CC(=O)O)C(=O)NCC(=O)NCC(=O)N1CCC[C@H]1C(=O)N[C@@H](CO)C(=O)N[C@@H](CO)C(=O)NCC(=O)N[C@@H](C)C(=O)N1CCC[C@H]1C(=O)N1CCC[C@H]1C(=O)N1CCC[C@H]1C(=O)N[C@@H](CO)C(N)=O)C(C)C)C(=O)O)C(=O)O` [compound 33] (H-H[Aib]QGTFTSDK([γGlu-γGlu-Palmitoyl])SKYLD[Aib]RAAQDFVQWLMDGGPSSGAPPPS-NH2), the EC50 was found to be 0.004 nM in assay [1] (EC50 (nM) at GLP-1 Receptor, Table 4, Example 9, composite of multiple different activity assays) and 0.005 nM in assay [3] (EC50 (nM) at Glucagon Receptor, Table 4, Example 9, composite of multiple different activity assays).

Regarding “H[Aib]QGTFTSDYSKYLDERAAQDFVQWLLDAGPSSGAPPPSK([γGlu-γGlu-Palmitoyl])G-NH2 [SEQ ID NO: 204]”, the EC50 in assay [1] (EC50 (nM) at GLP-1 receptor, Table 16, Example 24) was found to be 0.001 nM; in assay [3] (setting [6]), 0.003 nM.
